Laboratory results as given in patent US12090147B2, “Combination therapy with 2-(4-chlorophenyl)-N-((2-(2,6-dioxopiperidin-3-yl)-1-oxoisoindolin-5-yl)methyl)-2,2-difluoroacetamide” (Celgene Corporation, priority 2019, dated 2024).

What was measured:
[1] = Hygroscopicity; assay type: physicochemical
[2] = tested on: TF-1; assay: Cytokine induction, electrochemiluminescence assay of culture supernatant; assay type: cell-based, human
Procedure: (§1) For cytokine assays on AML cell lines, cells were seeded at 1 million per mL, 3 mL per well of 6-well plates and allowed set overnight. The next day, cells were treated with 3 μL 1000× working stock of compounds of interest.
(§2) Human AML cell lines, HL-60 (CCL-240), KG-1 (CCL-246), ML-2 (ACC-15), MOLM-13 (ACC-554), MV-4-11 (CRL-9591), NOMO-1 (ACC-542), TF-1 (CRL-2003), THP-1 (TIB-202), and U937 (CRL-1593) were obtained from American Type Culture Collection (ATCC; Manassas, VA) or Deutsche Sammlung von Mikroorganismen and Zellkulturen (DSMZ, Germany) cell banks. Acute myeloid leukemia cell lines were maintained in RPMI-1640 (ATCC Cat No. 30-2001) containing 20% fetal bovine serum (FBS) (Corning Cat No. 35-010-CV) and maintained in humidified incubators at 5% carbon dioxide.
(§3) IL-1α (Meso Scale Disgnostics, Cat No. K151RBD), IL-1β (Meso Scale Disgnostics, Cat No. K151QPD), IL-1RA (Meso Scale Disgnostics, Cat No. K151WTD), IL-18 (Meso Scale Disgnostics, Cat No. K151VJK), TNFa (Meso Scale Disgnostics, Cat No. K151QWD), VEGF Meso Scale Disgnostics, Cat No. K151RHD) levels were measured by (Meso Scale Disgnostics assay kits following manufacturer's instructions. Measurements were made on a MESO™ SECTOR S 600 plate reader (Meso Scale Disgnostics).
(§4) Cell proliferation (CTG) and caspase 3/7 activation (IncuCyte) were analyzed using GraphPad Prism. Electrochemiluminescence data was analyzed using MSD Discovery Workbench platform.
(§5) The level of intracellular pro IL-1β and released IL-1β in eight AML cell lines and normal PBMC treated with a titration of Compound 1 over a 48 hour period was assessed. (see FIGS. 1A-1C, Table 2). Supernatant IL-1βb level was induced over 5 fold in 6 out of 8 AML cell lines and normal PBMC upon Compound 1 treatment compared to DMSO (FIGS. 1A, 1B, and 1C, Table 2).

[3] = tested on: U937; assay: as above; assay type: cell-based, human
Procedure: as §1, §2, §3, §4, §5

[4] = tested on: KG-1; assay: as above; assay type: cell-based, human
Procedure: as §1, §2, §3, §4, §5

[5] = tested on: ML-2; assay: as above; assay type: cell-based, human; conditions: ML-2
Procedure: as §1, §2, §3, §4, §5

[6] = tested on: NOMO-1; assay: as above; assay type: cell-based, human
Procedure: as §1, §2, §3, §4, §5

[7] = physchem; conditions: aqueous buffer
[8] = tested on: MV4-11; assay: Cytokine induction, electrochemiluminescence assay of culture supernatant; assay type: cell-based, human; conditions: compounds at 1 μM, 72 hours
[9] = tested on: ML-2; assay: as above; assay type: cell-based, human; conditions: compounds at 1 μM, 72 hours
[10] = tested on: ML-2; assay: Caspase 8/FLICE activity colorimetric assay; assay type: cell-based, human; conditions: compounds at 1 μM, 24, 48 and 72 hours
Procedure: (§6) Next, tests were performed to see if caspase 8 activation alone is sufficient to mediate IL-1β induction. […] To ensure caspase 8 activity was captured at an appropriate time frame, caspase 8 activation levels at 24, 48 and 72 hours were measured (FIGS. 3C and 3D) using a caspase 8/FLICE activity colorimetric assay.

[11] = tested on: MV4-11; assay: Caspase 8/FLICE activity colorimetric assay; assay type: cell-based, human; conditions: compounds at 1 μM, 24, 48 and 72 hours
Procedure: as §6

[12] = tested on: MOLM-13; assay: Cell viability (CELL TITER-GLO), Compound 1 IC50; assay type: cell-based; conditions: Homo sapiens; MOLM-13 (monocytic, FAB M5a)
Procedure: (§7) For CELL TITER-GLO® (CTG; Promega) and Incucyte assays, cells were seeded at 0.1 million per mL, 50 μL per well of Corning black 384-well plate and allowed set overnight. The next day, test compounds were dispensed using a Tecan D300e digital dispenser according to manufacturer's instruction.
as §2
(§8) AML cell lines and primary AML were treated in duplicate or triplicates with DMSO or test compounds in 384-well plates for 3 days. Cell viability was determined by CELL TITER-GLO® (CTG; Promega) assay kit according to manufacturer's instructions. Apoptosis was monitored using Caspase 3/7 Green reagent (Essen Biosciences Cat No. 4440). Caspase-3/7 activation levels were quantified using the IncuCyte™ ZOOM basic analyzer.
as §4

[13] = tested on: TF-1; assay: Cell viability (CELL TITER-GLO), Compound 1 IC50; assay type: cell-based; conditions: Homo sapiens; TF-1 (erythroblast, FAB M6)
Procedure: as §7, §2, §8, §4

[14] = tested on: KG-1; assay: Cell viability (CELL TITER-GLO), Compound 1 IC50; assay type: cell-based; conditions: Homo sapiens; KG-1 (myeloblast, FAB M0)
Procedure: as §7, §2, §8, §4

[15] = tested on: MV4-11; assay: Cell viability (CELL TITER-GLO), Compound 1 IC50; assay type: cell-based; conditions: Homo sapiens; MV4-11 (acute myeloid leukemia, FAB M5)
Procedure: as §7, §2, §8, §4

[16] = tested on: NOMO-1; assay: Cell viability (CELL TITER-GLO), Compound 1 IC50; assay type: cell-based; conditions: Homo sapiens; NOMO-1 (macrophage, FAB M5a)
Procedure: as §7, §2, §8, §4

O=C1CCC(N2Cc3cc(CNC(=O)C(F)(F)c4ccc(Cl)cc4)ccc3C2=O)C(=O)N1 (centres unmarked) [Compound 1, 2-(4-chlorophenyl)-N-((2-(2,6-dioxopiperidin-3-yl)-1-oxoisoindolin-5-yl)methyl)-2,2-difluoroacetamide]
Hygroscopicity [1]: Not hygroscopic | IL-1β induction [2]: 1.41 | IL-18 induction [2]: 0.64 | IL-1β induction [3]: 1.28 | IL-18 induction [3]: 0.41 | IL-1β induction [4]: 27.17 | IL-18 induction [4]: 0.38 | IL-1β induction [5]: 3.48 | IL-18 induction [5]: 0.00 | Intracellular pro- and secreted IL-1β induction, time of onset [5]: not observed until 48 hours post-treatment | Secreted IL-1β in cell culture supernatant ([5]; 24, 48 and 72 hours, doses conferring similar caspase3/7 activation and viability loss): conferred induction | IL-1β induction [6]: 1.34 | IL-18 induction [6]: 0.24 | solubility [7]: ≤ 1 µg/mL | Secreted IL-1β levels, panel of mechanistic compounds [8]: produced markedly more secreted IL-1β compared to all other compounds tested | Secreted IL-1β levels, panel of mechanistic compounds [9]: produced markedly more secreted IL-1β compared to all other compounds tested | Caspase 8 activation level [10]: not the most efficient caspase 8 activating compound across all time points tested | Caspase 8 activation level [11]: not the most efficient caspase 8 activating compound across all time points tested | IC50 [12]: 76.2 nM | IC50 [13]: 105 nM | IC50 [14]: 8.9 nM | IC50 [15]: 17.3 nM | IC50 [16]: 57.8 nM
